Reference: US20240409537A1, “Crystal Form of AMG510 Compound, and Preparation Method Thereof and Use Thereof” (BIRDO (SHANGHAI) PHARMACEUTICAL R&D CO., LTD, priority 2021, published 2024)
Converted amounts (≈) assume the structure as drawn. “Also recorded” adds a separate entry of the source. Read-outs that look alike come from different tables or passages of the source. One block for each compound: values may come before it.

How the values were obtained:
[1] = Dynamic solubility of crystal form in SGF, FaSSIF, FeSSIF and water (HPLC); type: physicochemical
Protocol: When a drug solubility test was performed to predict the performances of a drug in vivo, it is important to simulate in vivo conditions as much as possible. For oral drugs, simulated gastric fluid (SGF), fasted state simulated intestinal fluid (FaSSIF) and fed state simulated intestinal fluid (FeSSIF) may be used to simulate in vivo conditions and predict a feeding effect, and the solubility tested in such media was closer to the solubility in the human body environment.

[2] = cited from earlier work
[3] = Mechanical stability: manual grinding, XRPD before and after; type: physicochemical; conditions: ground manually in a mortar for 5 min
[4] = Hygroscopicity (Chinese Pharmacopoeia 9103, 25±1° C., 80% relative humidity); type: physicochemical; conditions: 80% RH, 24 h
Protocol: According to the description of hygroscopicity characteristics and the definition (9103 Drug Hygroscopicity Experiment Guiding Principles, 2020 edition of General Principles, Chinese Pharmacopoeia, experimental conditions: 25±1° C., 80% relative humidity) of the hygroscopic weight gain: • deliquescent: enough water is absorbed to form liquid • very hygroscopic: the hygroscopic weight gain is not less than 15.0% • hygroscopic: the hygroscopic weight gain is less than 15.0% but not less than 2.0% • slightly hygroscopic: the hygroscopic weight gain is less than 2.0% but not less than 0.2% • no or almost no hygroscopicity: the hygroscopic weight gain is […].

[5] = Stability of crystal form DCIII on sealed placement (HPLC purity, XRPD crystal form); type: physicochemical
[6] = 25° C./60% RH, 1 month, sealed, listed as crystal form DCIII
[7] = 40° C./75% RH, 1 month, sealed, listed as crystal form DCIII
[8] = 60° C./75% RH, 1 month, sealed, listed as crystal form DCIII

Solubility FaSSIF 1 h ([1]; FaSSIF, equilibrated 1 h): 20 µg/mL (≈ 35.7 µM)
Solubility FaSSIF 4 h ([1]; FaSSIF, equilibrated 4 h): 10 µg/mL (≈ 17.8 µM)
Solubility FeSSIF 4 h ([1]; FeSSIF, equilibrated 4 h): 40 µg/mL (≈ 71.4 µM)
Solubility H2O 1 h ([1]; equilibrated 1 h): 10 µg/mL (≈ 17.8 µM)
Solubility H2O 4 h ([1]; equilibrated 4 h): 10 µg/mL (≈ 17.8 µM)
Solubility H2O 24 h ([1]; equilibrated 24 h): 10 µg/mL (≈ 17.8 µM)
solubility at 24 h ([1]; fasted state simulated intestinal fluid (FaSSIF), fassif, thermodynamic from solid, FaSSIF, equilibrated 24 h, read-out: Solubility FaSSIF 24 h): 30 µg/mL (≈ 53.5 µM)
solubility at 24 h ([1]; fed state simulated intestinal fluid (FeSSIF), fessif, thermodynamic from solid, FeSSIF, equilibrated 24 h, read-out: Solubility FeSSIF 24 h): 60 µg/mL (≈ 107 µM)
solubility at 1 h ([1]; simulated gastric fluid (SGF), simulated gastric fluid, thermodynamic from solid, SGF, equilibrated 1 h): 3770 µg/mL (≈ 6720 µM)
solubility at 4 h ([1]; simulated gastric fluid (SGF), simulated gastric fluid, thermodynamic from solid, SGF, equilibrated 4 h): 3860 µg/mL (≈ 6890 µM)
solubility at 24 h ([1]; simulated gastric fluid (SGF), simulated gastric fluid, thermodynamic from solid, SGF, equilibrated 24 h, read-out: Solubility SGF 24 h): 3110 µg/mL (≈ 5550 µM)
Structure (SMILES): C=CC(=O)N1CCN(c2nc(=O)n(-c3c(C)ccnc3C(C)C)c3nc(-c4c(O)cccc4F)c(F)cc23)[C@@H](C)C1 [Anhydrous crystal form I, 6-fluoro-7-(2-fluoro-6-hydroxyphenyl)-1-(4-methyl-2-propane-2-ylpyridin-3-yl)-4-[(2S)-2-methyl-4-propyl-2-enoylpiperazin-1-yl]pyridine[2,3-d]pyrimidin-2-one, reference compound]
Solubility (prior-art form, in words) [2]: low solubility

Crystallinity after grinding [3]: no significant decrease
Solubility FaSSIF 1 h ([1]; FaSSIF, equilibrated 1 h): 50 µg/mL (≈ 89.2 µM)
Solubility FaSSIF 4 h ([1]; FaSSIF, equilibrated 4 h): 40 µg/mL (≈ 71.4 µM)
Solubility FaSSIF 24 h ([1]; FaSSIF, equilibrated 24 h): 40 µg/mL (≈ 71.4 µM)
Solubility FeSSIF 1 h ([1]; FeSSIF, equilibrated 1 h): 150 µg/mL (≈ 268 µM)
Solubility FeSSIF 4 h ([1]; FeSSIF, equilibrated 4 h): 200 µg/mL (≈ 357 µM)
Solubility FeSSIF 24 h ([1]; FeSSIF, equilibrated 24 h): 80 µg/mL (≈ 143 µM)
Solubility H2O 1 h ([1]; equilibrated 1 h): 30 µg/mL (≈ 53.5 µM)
Solubility H2O 4 h ([1]; equilibrated 4 h): 30 µg/mL (≈ 53.5 µM)
Solubility H2O 24 h ([1]; equilibrated 24 h): 30 µg/mL (≈ 53.5 µM)
Solubility compared with anhydrous crystal form I (in words) ([1]; SGF, FaSSIF, FeSSIF and pure water): higher solubility
Solubility SGF 1 h ([1]; SGF, equilibrated 1 h): 7270 µg/mL (≈ 13000 µM)
Solubility SGF 4 h ([1]; SGF, equilibrated 4 h): 6240 µg/mL (≈ 11100 µM)
Solubility SGF 24 h ([1]; SGF, equilibrated 24 h): 4540 µg/mL (≈ 8100 µM)
Weight gain percentage [4]: 0.6%
Weight gain mass ([4]; onset mass 102.76 mg): 0.64 mg
Crystal form (XRPD) ([5]; 25° C./60% RH, 1 month, sealed): Crystal form DCIII
Purity (HPLC) ([5]; 25° C./60% RH, 1 month, sealed): 99.45%
Crystal form (XRPD) [5, 6]: remains unchanged
Purity (HPLC) [5, 6]: above 99%
Time for which physicochemical stability is maintained ([5]; 25° C./60% RH, 40° C./75% RH and 60° C./75% RH): at least 1 month
Crystal form (XRPD) ([5]; 40° C./75% RH, 1 month, sealed): Crystal form DCIII
Purity (HPLC) ([5]; 40° C./75% RH, 1 month, sealed): 99.49%
Crystal form (XRPD) [5, 7]: remains unchanged
Purity (HPLC) [5, 7]: does not present a significant decrease
Crystal form (XRPD) ([5]; 60° C./75% RH, 1 month, sealed): Crystal form DCIII
Purity (HPLC) ([5]; 60° C./75% RH, 1 month, sealed): 99.50%
Crystal form (XRPD) [5, 8]: remains unchanged
Purity (HPLC) [5, 8]: does not present a significant decrease
Crystal form (XRPD) ([5]; Onset): Crystal form DCIII
Purity (HPLC) ([5]; Onset): 99.44%
Structure (SMILES): C=CC(=O)N1CCN(c2nc(=O)n(-c3c(C)ccnc3C(C)C)c3nc(-c4c(O)cccc4F)c(F)cc23)[C@@H](C)C1 [Crystal form DCIII, 6-fluoro-7-(2-fluoro-6-hydroxyphenyl)-1-(4-methyl-2-propane-2-ylpyridin-3-yl)-4-[(2S)-2-methyl-4-propyl-2-enoylpiperazin-1-yl]pyridine[2,3-d]pyrimidin-2-one]
Crystal form before and after grinding (XRPD) [3]: remained unchanged; also recorded: no crystal transformation
